Assay results: patent publication US10130590B2, “Methods of treating cancer with atovaquone-related compounds” (DANA-FARBER CANCER INSTITUTE, INC., priority 2013, dated 2018)

Legend:
[1] = system: non-malignant peripheral blood mononuclear cells (PBMC); assay: Cell viability (Cell Titer Glo), PBMC; format: cell-based; settings: 72 hours, healthy donors
Experimental: Mouse embryonic fibroblasts (MEFs) were cultured in DMEM+10% FBS. TSC2-null (see, Zhang et al. J Clin Invest. 2003; 112(8):1223-1233) and REDD1-null (see, Sofer et al. Mol. Cell. Biol. July 2005 vol. 25 no. 14 5834-5845) MEFs, along with MEFs from the littermate controls, were kind gifts from Dr. John Blenis and Dr. Leif Ellisen, respectively. HEL (see, Iwama et al. Mol. Cell. Biol. June 1999 vol. 19 no. 6 3940-3950) was a kind gift of Dr. Daniel G. Tenen and grown in RPMI-1640+10% FBS. OCI-AML2 and OCI-AML3 (see, Grunberger et al. Blood Dec. 1, 2003 vol. 102 no. 12 4153-4158), and MOLM-13 (German Collection of Microorganisms and Cell Cultures (DSMZ, Braunschweig, Germany)) were kind gifts of Dr. James D. Griffin and grown in RPMI-1640+10% FBS. MM.1S (ATCC) was a kind gift of Dr. Kenneth C. Anderson and grown in RPMI-1640+10% FBS. SET2 (see, Koppikar et al. Nature 489, 155-159 (6 Sep. 2012)) was a kind gift of Dr. Ross L. Levine and grown in RPMI-1640+10% FBS. HL60 (ATCC) was a kind gift of Dr. James D. Griffin and grown in RPMI-1640+10% FBS. […] Molecular Pharmacology 78(5):903-908; and Walker S R, et al. (2009) Reciprocal effects of STAT5 and STAT3 in breast cancer. Molecular Cancer Research: MCR 7(6):966-976). Peripheral blood mononuclear cells (PBMCs) were isolated from healthy donors by Ficoll density gradient centrifugation and maintained in RPMI-1640+10% FBS. […]

STAT5 = STAT5 phosphorylation in cancer cells; format: cell-based
Excerpt: It has been discovered, using an unbiased gene expression-based approach, that atovaquone is a novel STAT3 inhibitor. Atovaquone acts by diminishing cell-surface gp130 expression and STAT3 tyrosine phosphorylation. As a consequence, critical STAT3 target genes mediating survival and proliferation are reduced, such as survivin, Bcl-2 family members, and cyclin D1. Moreover, atovaquone inhibits the viability of STAT3-dependent cancer cells by inducing apoptosis and disrupting cell cycle progression. […] Since STAT5 activation is crucial to cancer pathogenesis caused by JAK2-V617F, the additional inhibition of STAT5 in this context is a desirable effect of atovaquone. […] Because the effects of atovaquone on STAT activation are restricted to gp130-dependent signaling, atovaquone inhibits STATs more selectively than direct pharmacological JAK inhibition. […] At the same time, the actions of atovaquone extend to all cytokines that signal through gp130, including LIF and OSM, thereby exerting broader effects than therapies specifically directed against IL-6 or IL-6 receptor, such as monoclonal antibodies. This is also advantageous, since oncogenic effects of LIF and OSM have been reported.

STAT1 = STAT1 cell-based luciferase reporter system
Experimental: To determine if atovaquone inhibits STAT3, it was tested in a cell-based reporter system of STAT3 transcriptional activity (Nelson E A, et al. (2008) Nifuroxazide inhibits survival of multiple myeloma cells by directly inhibiting STAT3. Blood 112(13):5095-5102). These cells lack basal STAT3 activation; upon IL-6 treatment, STAT3 becomes activated and drives transcription of a STAT3-dependent luciferase reporter gene. The STAT3-luc reporter cells were pre-treated with drug for 1 hour, then stimulated with IL-6 (10 ng/ml) for 5 hr. Activity of firefly luciferase was measured and normalized by cell viability (Cell Titer Glo). […] To determine if atovaquone inhibits STAT3 activity specifically over other transcription factors, it was tested in cell-based reporter systems for STAT1 and STAT5, two other STAT family members, and NF-κB, an unrelated transcription factor.

SMILES: O=C1C(O)=C([C@H]2CC[C@H](c3ccc(Cl)cc3)CC2)C(=O)c2ccccc21 [atovaquone, trans-2-[4-(4-chlorophenyl)cyclohexyl]-3-hydroxy-1,4-naphthalenedione]
- viability of PBMC [1]: relatively preserved
- mutant JAK2-dependent phosphorylation of STAT5 (STAT5; HEL cells): inhibited
- STAT5 phosphorylation (BCR-ABL activated) (STAT5; K562 cells): did not inhibit STAT5 phosphorylation
- STAT1 transcription factor activity (STAT1): modestly affected at the higher doses
